In the CheMixHub viscosity set:
± gives the uncertainty stated by the source.

Assay: xn = mol fraction of the nth substance listed

C#CC(C)(C)O + O
viscosity [mPa·s], 101.32 kPa
Conditions | x1 = 0.1001 | x1 = 0.2003 | x1 = 0.3009 | x1 = 0.4001 | x1 = 0.5004 | x1 = 0.602 | x1 = 0.7044 | x1 = 0.8017 | x1 = 0.9005
308.15 K | 1.612 ± 0.025 | 2.02 ± 0.031 | 2.2 ± 0.033 | 2.289 ± 0.035 | 2.308 ± 0.035 | 2.297 ± 0.035 | 2.254 ± 0.034 | 2.21 ± 0.034 | 2.152 ± 0.033
313.15 K | 1.403 ± 0.022 | 1.78 ± 0.027 | 1.92 ± 0.029 | 1.973 ± 0.03 | 1.986 ± 0.03 | 1.968 ± 0.03 | 1.928 ± 0.03 | 1.898 ± 0.029 | 1.838 ± 0.029
318.15 K | 1.24 ± 0.019 | 1.56 ± 0.024 | 1.67 ± 0.026 | 1.7 ± 0.026 | 1.719 ± 0.027 | 1.712 ± 0.027 | 1.669 ± 0.026 | 1.643 ± 0.026 | 1.582 ± 0.025
323.15 K | 1.105 ± 0.018 | 1.369 ± 0.021 | 1.45 ± 0.023 | 1.483 ± 0.023 | 1.498 ± 0.024 | 1.486 ± 0.023 | 1.449 ± 0.023 | 1.424 ± 0.023 | 1.376 ± 0.022

CCCC(C)O (stereo not given) + CC1CCCCC1
viscosity [mPa·s], 100 kPa
Conditions | x2 = 0.081 | x2 = 0.16 | x2 = 0.2399 | x2 = 0.3501 | x2 = 0.4399 | x2 = 0.56 | x2 = 0.6499 | x2 = 0.7401 | x2 = 0.8499 | x2 = 0.94
293.15 K | 3.09 ± 0.37 | 2.46 ± 0.3 | 1.96 ± 0.24 | 1.48 ± 0.18 | 1.23 ± 0.15 | 1.05 ± 0.13 | 0.98 ± 0.12 | 0.93 ± 0.11 | 0.88 ± 0.11 | 0.8 ± 0.1
298.15 K | 2.56 ± 0.31 | 2.05 ± 0.25 | 1.66 ± 0.2 | 1.26 ± 0.15 | 1.06 ± 0.13 | 0.92 ± 0.11 | 0.86 ± 0.1 | 0.82 ± 0.1 | 0.79 ± 0.1 | 0.73 ± 0.09
303.15 K | 2.15 ± 0.26 | 1.74 ± 0.21 | 1.43 ± 0.17 | 1.11 ± 0.13 | 0.95 ± 0.11 | 0.83 ± 0.1 | 0.79 ± 0.1 | 0.77 ± 0.09 | 0.73 ± 0.09 | 0.68 ± 0.08
308.15 K | 1.83 ± 0.22 | 1.5 ± 0.18 | 1.24 ± 0.15 | 0.99 ± 0.12 | 0.86 ± 0.1 | 0.75 ± 0.09 | 0.71 ± 0.09 | 0.69 ± 0.08 | 0.67 ± 0.08 | 0.63 ± 0.08
313.15 K | 1.57 ± 0.19 | 1.31 ± 0.16 | 1.1 ± 0.13 | 0.89 ± 0.11 | 0.78 ± 0.09 | 0.7 ± 0.08 | 0.67 ± 0.08 | 0.65 ± 0.08 | 0.63 ± 0.08 | 0.59 ± 0.07
318.15 K | 1.35 ± 0.16 | 1.13 ± 0.14 | 0.96 ± 0.12 | 0.8 ± 0.1 | 0.72 ± 0.09 | 0.66 ± 0.08 | 0.64 ± 0.08 | 0.62 ± 0.07 | 0.6 ± 0.07 | 0.57 ± 0.07
323.15 K | 1.17 ± 0.14 | 1 ± 0.12 | 0.86 ± 0.1 | 0.72 ± 0.09 | 0.66 ± 0.08 | 0.61 ± 0.07 | 0.58 ± 0.07 | 0.57 ± 0.07 | 0.56 ± 0.07 | 0.54 ± 0.07

C1CCNCC1 + O
viscosity [mPa·s], 101 kPa
Conditions | x1 = 0.05 | x1 = 0.1 | x1 = 0.2 | x1 = 0.3 | x1 = 0.35 | x1 = 0.4 | x1 = 0.6 | x1 = 0.8
298.15 K | 1.9 ± 0.05 | 3.06 ± 0.09 | 4.76 ± 0.14 | 5.4 ± 0.16 | 5.42 ± 0.16 | 5.13 ± 0.15 | 3.38 ± 0.1 | 2.05 ± 0.06
323.15 K | 0.887 ± 0.024 | 1.26 ± 0.03 | 1.77 ± 0.05 | 1.94 ± 0.05 | 1.94 ± 0.05 | 1.86 ± 0.05 | 1.38 ± 0.04 | 0.993 ± 0.027

COCCO + CCO
viscosity [mPa·s], 101 kPa
Conditions | x1 = 0.06304 | x1 = 0.133 | x1 = 0.206 | x1 = 0.2876 | x1 = 0.3771 | x1 = 0.476 | x1 = 0.5856 | x1 = 0.7078 | x1 = 0.8449
298.15 K | 1.051 ± 0.11 | 1.024 ± 0.1 | 1.019 ± 0.1 | 1.031 ± 0.1 | 1.053 ± 0.11 | 1.084 ± 0.11 | 1.173 ± 0.12 | 1.286 ± 0.13 | 1.415 ± 0.14
308.15 K | 0.8342 ± 0.084 | 0.8445 ± 0.085 | 0.8576 ± 0.086 | 0.8812 ± 0.088 | 0.9063 ± 0.091 | 0.9409 ± 0.094 | 1.003 ± 0.1 | 1.07 ± 0.11 | 1.105 ± 0.11
318.15 K | 0.7622 ± 0.076 | 0.7704 ± 0.077 | 0.773 ± 0.077 | 0.8002 ± 0.08 | 0.847 ± 0.085 | 0.868 ± 0.087 | 0.911 ± 0.091 | 0.923 ± 0.093 | 0.9633 ± 0.097

COCCO + CCCCCCCO
viscosity [mPa·s], 101 kPa
Conditions | x1 = 0.1451 | x1 = 0.2763 | x1 = 0.3956 | x1 = 0.5044 | x1 = 0.6043 | x1 = 0.6961 | x1 = 0.7808 | x1 = 0.8593 | x1 = 0.9322
298.15 K | 4.92 ± 0.49 | 3.963 ± 0.4 | 3.336 ± 0.33 | 2.889 ± 0.29 | 2.551 ± 0.26 | 2.252 ± 0.23 | 2.054 ± 0.21 | 1.852 ± 0.19 | 1.79 ± 0.18
308.15 K | 3.116 ± 0.31 | 2.561 ± 0.26 | 2.23 ± 0.22 | 1.936 ± 0.19 | 1.753 ± 0.18 | 1.592 ± 0.16 | 1.489 ± 0.15 | 1.341 ± 0.13 | 1.247 ± 0.13
318.15 K | 2.496 ± 0.25 | 2.203 ± 0.22 | 1.906 ± 0.19 | 1.611 ± 0.16 | 1.487 ± 0.15 | 1.455 ± 0.15 | 1.465 ± 0.15 | 1.142 ± 0.11 | 1.095 ± 0.11

COCCO + C1CCCCC1
viscosity [mPa·s], 101 kPa
Conditions | 298.15 K | 308.15 K
x1 = 0.054 | 0.905 ± 0.016 | 0.75 ± 0.013
x1 = 0.1506 | 0.923 ± 0.016 | 0.757 ± 0.013
x1 = 0.2513 | 0.95 ± 0.016 | 0.773 ± 0.014
x1 = 0.3532 | 0.989 ± 0.017 | 0.797 ± 0.014
x1 = 0.4508 | 1.037 ± 0.017 | 0.829 ± 0.015
x1 = 0.4955 | 1.062 ± 0.018 | 0.847 ± 0.015
x1 = 0.5513 | 1.098 ± 0.018 | 0.873 ± 0.015
x1 = 0.649 | 1.172 ± 0.019 | 0.926 ± 0.016
x1 = 0.7493 | 1.264 ± 0.021 | 0.994 ± 0.017
x1 = 0.8496 | 1.377 ± 0.022 | 1.079 ± 0.018
x1 = 0.9529 | 1.518 ± 0.024 | 1.185 ± 0.02

CC[N+](CC)(CC)CC.[OH-] + O
viscosity [mPa·s], 101 kPa
Conditions | x1 = 0.00313 | x1 = 0.0064 | x1 = 0.01341 | x1 = 0.02113 | x1 = 0.02968 | x1 = 0.03918 | x1 = 0.04982
298.15 K | 0.9776 ± 0.017 | 1.114 ± 0.02 | 1.248 ± 0.023 | 1.659 ± 0.031 | 2.07 ± 0.039 | 2.869 ± 0.056 | 3.679 ± 0.073
303.15 K | 0.8738 ± 0.016 | 0.9902 ± 0.018 | 1.107 ± 0.02 | 1.453 ± 0.027 | 1.8 ± 0.034 | 2.455 ± 0.048 | 3.111 ± 0.062
313.15 K | 0.7149 ± 0.013 | 0.8019 ± 0.014 | 0.8902 ± 0.016 | 1.144 ± 0.021 | 1.399 ± 0.026 | 1.856 ± 0.036 | 2.313 ± 0.046
323.15 K | 0.6005 ± 0.011 | 0.6598 ± 0.012 | 0.7359 ± 0.013 | 0.9278 ± 0.017 | 1.121 ± 0.021 | 1.45 ± 0.028 | 1.779 ± 0.035

COCCO + CC#N
298 K, 101.33 kPa
Conditions | viscosity [mPa·s]
x1 = 0.097 | 0.391 ± 0.007
x1 = 0.1987 | 0.455 ± 0.007
x1 = 0.2949 | 0.529 ± 0.008
x1 = 0.404 | 0.631 ± 0.009
x1 = 0.4985 | 0.736 ± 0.01
x1 = 0.5987 | 0.866 ± 0.011
x1 = 0.6932 | 0.991 ± 0.013
x1 = 0.7991 | 1.171 ± 0.015
x1 = 0.9035 | 1.361 ± 0.017
